We go through 14 compounds from US4886806A, “Flavone-3-carboxylic acids compounds and pharmaceutical compositions containing them” (Kali-Chemie Pharma GmbH, priority 1987, dated 1989).

This assay deals with oxygen radical-forming activity of peritoneal exudate cells (PEC) of mice. Nature of the assay: Spontaneous CL and induced CL chemiluminescence test: inhibition of oxygen radical liberation from peritoneal exudate cells (30 min preincubation). The class given is cell-based. Further details: concentration or dose not given beside the values. As to conditions: for Inhibition in vitro of the oxygen radical liberation, Chemiluminescence Test % inhibition, Ind. CL: induced CL, after ZyC3b activation; for Inhibition in vitro of the oxygen radical liberation, Chemiluminescence Test % inhibition, Spnt. CL: spontaneous CL, before ZyC3b. The method, then: 1. To determine the inhibiting effect on the oxygen radical-forming activity of inflamed cells, the in vitro inhibition of the release of oxygen radicals from activated peritoneal exudate cells (=PEC) of mice was determined in the chemiluminescence (CL) test according to the method of Mueller-Peddinghaus (Int. J. Immunopharmac. 6, 455-466 (1984)). […] The intensity of the chemiluminescence is a measurement of the oxygen radical content in the suspension and thus the degree of activity of the inflamed cells. In this, three functionally different parameters are detected, the spontaneous CL, the induced CL and the peak CL. The spontaneous CL and the induced CL on the one hand and the peak CL on the other hand differ from each other because in the first two parameters the test substances are in contact with the cells for a 30 minute preincubation period before the inflammation irritant is added, whereas with the peak CL the cells are first stimulated, and the test substance is added at the peak of their activity. The measurement of the spontaneous CL thus detects the influence of the test substance on the relative rest activity of inflamed cells, the induced CL represents the effect of the test substances on the activatability of the cells and the inhibition of the peak CL indicates the effect of the test substances on the maximum activity of the inflamed cells. 1.1 Production of PEC suspension used in the test. In order to induce the PEC formation, female mice of 20-25 g body weight were each injected i.p. with 2 ml of a 3% solution of thioglycollate in sterile isotonic sodium chloride solution. Twenty four hours after the thioglycollate injection the cells, which predominantly consisted of polymorphonuclear leucocytes, were recovered by washing out of the abdominal cavity and washed twice. As cell culture medium there was added a commercially available solution under the designation RPMI 1640 (pH 7.2) (produced by Flow Laboratories, […], Germany), which contains 10% fetal calf serum (FCS, produced by Seromed GmbH, Munich, Germany) 18 μmol/l sodium bicarbonate and 2 μmol/l L-glutamine. The cell pellets of four animals each time were resuspended in cell culture medium, collected together and the suspension was made up to 2×10^6 cells per ml with cell culture medium. The cell suspensions were kept under ice cooling until their use the same day. 1.2 Production of the complement opsonized zymosan (=ZyC3 b) suspension used for activation. 200 mg zymosan (glycoprotein mixture isolated from the cell walls of brewer's yeast, Sacchomyces […], produced by Sigma Chemical Co., Munich, Germany) were suspended in 10 ml phosphate buffer solution according to Dulbecco (produced by Flow Laboratories, […], Germany), well stirred and heated for thirty minutes in a water bath to 100° C. After cooling, it was centrifuged for five minutes at 4° C. and at 600 ×g and the supernatant was discarded. The sediment was resuspended in 50 ml human serum and incubated for thirty minutes at 37° C. in a shaking water bath. Then it was centrifuged for five minutes at 600 ×g and 420 C., the supernatant decanted and the sediment washed with phosphate buffer solution. The working suspension of 8×10^-3 g ZyC3 b/ml was produced from the sediment by dilution with phosphate buffer solution (Mueller-Peddinghaus et al., Zbl. Vet. Med. B. 30, 559-575). 1.3 Chemiluminescence (CL) measurement (Peak-CL). […] At the end of this preincubation phase, 100 μl lucigenin were added, and in the course of the subsequent sixteen minute incubation phase the spontaneous CL parameter was determined with two measuring points. Then 100 μl ZyC3 b+100 μl phosphate buffer were added, and during the course of the subsequent twenty-four minute cell activation the induced CL parameter was measured with three measuring points. All measurements were determined twice. The parameters spontaneous CL and induced CL were determined on the same day with two separate cell pools.

Regarding `COc1cc(-c2oc3ccccc3c(=O)c2C(=O)NCCCCN2CCN(c3ncccn3)CC2)cc(OC)c1OC` [Example 54], the “Inhibition in vitro of the oxygen radical liberation, Chemiluminescence Test % inhibition, Ind. CL” value amounted to 83% and the “Inhibition in vitro of the oxygen radical liberation, Chemiluminescence Test % inhibition, Spnt. CL” value came to 91%.

On to `CCN(CC)CCCOC(=O)c1c(-c2ccccc2)oc2ccccc2c1=O.Cl` [Example 3b, 3-[3-(diethylamino)propoxycarbonyl]flavone hydrochloride], for which the “Inhibition in vitro of the oxygen radical liberation, Chemiluminescence Test % inhibition, Ind. CL” value is reported as 83% and the “Inhibition in vitro of the oxygen radical liberation, Chemiluminescence Test % inhibition, Spnt. CL” value is 94%.

On to `COc1cc(-c2oc3ccccc3c(=O)c2C(=O)N2CCN(c3ccccn3)CC2)cc(OC)c1OC` [Example 7b, 3',4',5'-trimethoxy-3-{[4-(2-pyridyl)-piperazin-1-yl]-carbonyl}flavone], for which the “Inhibition in vitro of the oxygen radical liberation, Chemiluminescence Test % inhibition, Ind. CL” value is recorded as 50% and the “Inhibition in vitro of the oxygen radical liberation, Chemiluminescence Test % inhibition, Spnt. CL” value is listed as 61%.

Turning to `O=C(c1c(-c2cccc(O)c2)oc2ccccc2c1=O)N1CCN(Cc2ccccc2)CC1` [Example 30], the “Inhibition in vitro of the oxygen radical liberation, Chemiluminescence Test % inhibition, Ind. CL” value is on record as 85% and the “Inhibition in vitro of the oxygen radical liberation, Chemiluminescence Test % inhibition, Spnt. CL” value is 85%.

Consider `O.O=C(O)C(O)C(O)C(=O)O.O=C(c1c(-c2ccccc2)oc2ccccc2c1=O)N1CCN(Cc2ccccc2)CC1` [Example 2b, 3-[(4-benzyl-piperazin-1-yl)-carbonyl]flavone tartrate monohydrate], for which the “Inhibition in vitro of the oxygen radical liberation, Chemiluminescence Test % inhibition, Ind. CL” value worked out at 54% and the “Inhibition in vitro of the oxygen radical liberation, Chemiluminescence Test % inhibition, Spnt. CL” value is listed as 67%.

In the case of `COc1cc(OC)c2c(=O)c(C(=O)N3CCN(c4ccccn4)CC3)c(-c3ccccc3)oc2c1` [Example 34], the “Inhibition in vitro of the oxygen radical liberation, Chemiluminescence Test % inhibition, Ind. CL” value was determined as 55% and the “Inhibition in vitro of the oxygen radical liberation, Chemiluminescence Test % inhibition, Spnt. CL” value was found to be 54%.

Take `CC(=O)Oc1cc(-c2oc3ccccc3c(=O)c2C(=O)N2CCN(c3ccccn3)CC2)cc(OC(C)=O)c1OC(C)=O` [Example 39b]: the “Inhibition in vitro of the oxygen radical liberation, Chemiluminescence Test % inhibition, Ind. CL” value stood at 99% and the “Inhibition in vitro of the oxygen radical liberation, Chemiluminescence Test % inhibition, Spnt. CL” value is given as 99%.

As for `Cl.O=C(c1c(-c2ccccc2)oc2ccccc2c1=O)N1CCN(c2ccccn2)CC1` [Example 1c, 3-{[4-(2-Pyridyl)-piperazin-1-yl]-carbonyl}flavone hydrochloride], the “Inhibition in vitro of the oxygen radical liberation, Chemiluminescence Test % inhibition, Ind. CL” value is reported as 39% and the “Inhibition in vitro of the oxygen radical liberation, Chemiluminescence Test % inhibition, Spnt. CL” value turned out to be 49%.

For `COc1cc(-c2oc3ccccc3c(=O)c2C(=O)N2CCN(c3ccccn3)CC2)cc(OC)c1OC` [Example 7a, 3',4',5'-trimethoxy-3-{[4-(2-pyridyl)-piperazin-1-yl]-carbonyl}flavone], the “Inhibition in vitro of the oxygen radical liberation, Chemiluminescence Test % inhibition, Ind. CL” value was 65% and the “Inhibition in vitro of the oxygen radical liberation, Chemiluminescence Test % inhibition, Spnt. CL” value is listed as 75%.

Turning to `O.O.O=C(O)C(O)C(O)C(=O)O.O=C(c1c(-c2cc(O)c(O)c(O)c2)oc2ccccc2c1=O)N1CCN(Cc2ccccc2)CC1` [Example 14e, 3',4',5'-trihydroxy-3-[(4-benzylpiperazin-1-yl)carbonyl] -flavone tartrate dihydrate], the “Inhibition in vitro of the oxygen radical liberation, Chemiluminescence Test % inhibition, Ind. CL” value stood at 99% and the “Inhibition in vitro of the oxygen radical liberation, Chemiluminescence Test % inhibition, Spnt. CL” value is listed as 98%.

For the compound `O=C(NCCCCN1CCN(c2ccccn2)CC1)c1c(-c2ccccc2)oc2ccccc2c1=O` [Example 4e, 3-{4-[4-(2-pyridyl)-piperazin-1-yl]-butylaminocarbonyl}flavone], the “Inhibition in vitro of the oxygen radical liberation, Chemiluminescence Test % inhibition, Ind. CL” value stood at 82% and the “Inhibition in vitro of the oxygen radical liberation, Chemiluminescence Test % inhibition, Spnt. CL” value came out at 95%.

Take `COc1ccc(-c2oc3ccccc3c(=O)c2C(=O)N2CCN(c3ccccn3)CC2)cc1OC` [Example 32b]: the “Inhibition in vitro of the oxygen radical liberation, Chemiluminescence Test % inhibition, Ind. CL” value is given as 65% and the “Inhibition in vitro of the oxygen radical liberation, Chemiluminescence Test % inhibition, Spnt. CL” value was found to be 71%.

`CN1CCN(CCCCNC(=O)c2c(-c3ccccc3)oc3ccccc3c2=O)CC1` [Example 24]: the “Inhibition in vitro of the oxygen radical liberation, Chemiluminescence Test % inhibition, Ind. CL” value stood at 14% and the “Inhibition in vitro of the oxygen radical liberation, Chemiluminescence Test % inhibition, Spnt. CL” value is 55%.

Consider `O=C(NCCc1ccccn1)c1c(-c2cc(O)c(O)c(O)c2)oc2ccccc2c1=O` [Example 53], for which the “Inhibition in vitro of the oxygen radical liberation, Chemiluminescence Test % inhibition, Ind. CL” value turned out to be 83% and the “Inhibition in vitro of the oxygen radical liberation, Chemiluminescence Test % inhibition, Spnt. CL” value worked out at 73%.
